Measured values published in the supplement of paper PMC10307832.

Assays:
Assay in all cases: relative viability (nuclei count vs DMSO), 5 days (fraction); higher = more cells survive
QS11 + Luminespib = compound: C1CC2=C(C1)C=C(C=C2)OC3=NC(=C4C(=N3)N(C=N4)CC5=CC=C(C=C5)C6=CC=CC=C6)N[C@@H](CC7=CC=CC=C7)CO [QS11] + CCNC(=O)c1noc(-c2cc(C(C)C)c(O)cc2O)c1-c1ccc(CN2CCOCC2)cc1 [Luminespib] (partner 0.01 µM)
In short: (§1)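 For relative viability, nuclei counts in treated wells were divided by those in vehicle wells. Lung cancer cell lines had been pin-tool dosed in 1536-well plates the day after seeding and cultured for 5 days, then fixed and stained in one step (final 0.05% Triton X-100, 1% formaldehyde, 1 ug/ml Hoechst) and imaged at 4×. Doses were one drug alone or a fixed anchor-drug dose plus five library-drug doses (not always all listed) in √10 steps, and values are duplicate-plate medians.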

QS11 + Lapatinib = compound: C1CC2=C(C1)C=C(C=C2)OC3=NC(=C4C(=N3)N(C=N4)CC5=CC=C(C=C5)C6=CC=CC=C6)N[C@@H](CC7=CC=CC=C7)CO [QS11] + CS(=O)(=O)CCNCc1ccc(-c2ccc3ncnc(Nc4ccc(OCc5cccc(F)c5)c(Cl)c4)c3c2)o1 [Lapatinib] (partner 2 µM)
In short: as §1

QS11 + AZD7762 = compound: C1CC2=C(C1)C=C(C=C2)OC3=NC(=C4C(=N3)N(C=N4)CC5=CC=C(C=C5)C6=CC=CC=C6)N[C@@H](CC7=CC=CC=C7)CO [QS11] + NC(=O)Nc1cc(-c2cccc(F)c2)sc1C(=O)N[C@H]1CCCNC1 [AZD7762] (partner 0.2 µM)
In short: as §1

[1] = compound: C[As](C)SC[C@H](NC(=O)CC[C@H](N)C(=O)O)C(=O)NCC(=O)O [Darinaparsin] + CS(=O)(=O)N1CCN(Cc2cc3nc(-c4cccc5[nH]ncc45)nc(N4CCOCC4)c3s2)CC1 [Pictilisib] (partner 1 µM)
In short: as §1

Cell Line | relative viability (QS11 + Luminespib; first compound 0.08 µM) | relative viability (QS11 + Luminespib; first compound 0.253 µM) | relative viability (QS11 + Luminespib; first compound 0.8 µM) | relative viability (QS11 + Luminespib; first compound 2.53 µM) | relative viability (QS11 + Luminespib; first compound 8 µM) | relative viability (QS11 + Lapatinib; first compound 0.08 µM) | relative viability (QS11 + Lapatinib; first compound 0.253 µM) | relative viability (QS11 + Lapatinib; first compound 0.8 µM) | relative viability (QS11 + Lapatinib; first compound 2.53 µM) | relative viability (QS11 + Lapatinib; first compound 8 µM) | relative viability (QS11 + AZD7762; first compound 0.08 µM) | relative viability (QS11 + AZD7762; first compound 0.253 µM) | relative viability (QS11 + AZD7762; first compound 0.8 µM) | relative viability (QS11 + AZD7762; first compound 2.53 µM) | relative viability (QS11 + AZD7762; first compound 8 µM) | relative viability ([1]; first compound 0.08 µM) | relative viability ([1]; first compound 0.8 µM) | relative viability ([1]; first compound 2.53 µM) | relative viability ([1]; first compound 8 µM)
NCI-H2405 | 0.516 | 0.756 | 0.646 | 0.835 | 0.89 | 0.951 | 1.02 | 1.02 | 1.29 | 1.07 | 0.731 | 0.747 | 0.789 | 1.13 | 1.22 | 0.5 | 0.443 | 0.422 | 0.537
NCI-H2126 | 0.923 | 0.976 | 0.695 | 0.766 | 0.726 | 0.792 | 0.698 | 0.727 | 0.802 | 0.717 | 1.01 | 0.999 | 0.846 | 1.01 | 0.933 | 0.506 | 0.499 | 0.474 | 0.533
LK-2 | 0.164 | 0.229 | 0.178 | 0.172 | 0.146 | 1.04 | 1.15 | 1 | 0.829 | 1.3 | 0.388 | 0.643 | 0.527 | 0.412 | 0.455 | 0.634 | – | 0.547 | 0.564
NCI-H1944 | 0.702 | 0.864 | – | 0.557 | 0.543 | 0.857 | 0.704 | – | 0.89 | 0.598 | 0.49 | 0.519 | – | 0.421 | 0.39 | 0.359 | 0.307 | 0.348 | 0.374
PC-14 | – | 0.14 | 0.183 | 0.135 | 0.148 | 0.277 | 0.315 | 0.257 | 0.249 | 0.329 | 0.276 | 0.278 | 0.369 | 0.318 | 0.443 | 1.15 | 0.823 | 0.566 | 0.752
LC-2-ad | 0.851 | 0.981 | 0.857 | 0.956 | 1.17 | 0.91 | 1.09 | 0.627 | 1.04 | 0.921 | 0.726 | 0.865 | 0.666 | 0.926 | 1.03 | 0.564 | 0.456 | 0.32 | 0.533
201T | 1.08 | 1.12 | 0.815 | 1.01 | 0.692 | 1.05 | 0.835 | 0.834 | 1.11 | 0.895 | 0.669 | 0.748 | 0.591 | 0.619 | 0.617 | 0.757 | 0.622 | 0.623 | 0.767
HOP-62 | 0.816 | 1.03 | 0.828 | 0.942 | 0.934 | 0.95 | 1.18 | 0.863 | 0.892 | 0.983 | 0.556 | 0.611 | 0.538 | 0.608 | 0.582 | 0.99 | 0.588 | 0.774 | 1.04
NCI-H1734 | 0.2 | 0.199 | 0.186 | 0.179 | 0.168 | 1.07 | 0.968 | 0.921 | 1.01 | 0.898 | 0.579 | 0.595 | 0.71 | 0.465 | 0.529 | 0.534 | 0.473 | 0.421 | 0.559
